# Source: article PMC8330100, “Similarities and differences in the localization, trafficking, and function of P-glycoprotein in MDR1-EGFP-transduced rat versus human brain capillary endothelial cell lines” (Fluids and Barriers of the CNS, 2021)
# Tests used:
# Pgp in RBE4-WT cells = test: Rhodamine 123 uptake/accumulation assay, RBE4-WT cells; type: cell-based, rat
# Method: The functionality of Pgp in RBE4-WT, RBE4-MDR1-EGFP, hCMEC/D3-WT, hCMEC/D3-MDR1-EGFP cells, and primary rBCECs was analyzed by measuring the uptake of the fluorescent Pgp substrate Rho123 (Sigma-Aldrich). Cells were grown on 6-well plates and cultured for seven days in the presence or absence of doxycycline (1 µg/mL, Biochrom). […] Afterward, Rho123 (5 µM, dissolved in ethanol) was added and cells were incubated for another two hours. Rho123 transport was terminated by washing the cells twice with ice-cold PBS. Intracellular Rho123 concentration was determined by cell lysis in standard lysis buffer (25 mM Tris, 50 mM NaCl, 0.5% (w/v) sodium deoxycholate, 0.5% (w/v) Triton X-100) and measurement of fluorescence intensity with the FLUOstar OPTIMA (ex.: 485 nm, em.: 520 nm; BMG Labtech). Protein concentrations were determined using a BCA assay kit (Thermo Fisher Scientific). Rho123 uptake was obtained for each condition in triplicates and calculated as absolute fluorescence per mg protein. Additionally, Pgp functionality was expressed as multidrug resistance activity factor (MAF) as described by Huber et al.. This factor describes Pgp efflux activity based on differences in intracellular Rho123 accumulation in cells after Pgp inhibition compared to cells with active Pgp-mediated efflux. Thus, higher MAF values correlate with increased Pgp activity. For better comparison, differences in Rho123 accumulation are normalized to intracellular Rho123 levels in inhibitor-treated cells. MAF values for Pgp were calculated according to Huber et al. 2012 utilizing the following equation: MAF (%) = 100 · (MFITQ − MFI0)/(MFITQ) where MFITQ and MFI0 represent the mean fluorescence intensity of intracellular Rho123 in tariquidar (TQ)-treated and non-treated cells, respectively.
# Pgp in primary rBCECs = test: Rhodamine 123 uptake/accumulation assay, primary rBCECs; type: cell-based, rat
# Description: The RBE4 and hCMEC/D3 cell lines used here are immortalized, which has the advantage that these cells are stable for several passages and may yield a large number of endothelial cells with the same genetic and phenotypical characteristics. The immortalization status, however, causes several alterations as compared to the native original cell type, including low junctional tightness of cell monolayers and reduced expression of efflux transporters such as Pgp. Therefore, for comparison with the MDR1-EGFP transduced rat RBE4 cells, experiments were also performed with primary cultured rat brain capillary endothelial cells (rBCECs). As described by us previously, rBCECs were prepared following a protocol by Régina et al. and Perrière et al. from 2 to 3 weeks old Wistar rats (obtained from Charles River; Sulzfeld, Germany). All animals were treated according to protocols evaluated and approved by the ethical committee of our university. In short, meninges were removed from cerebral cortices in phosphate-buffered saline (PBS) with 1% penicillin (100 U/mL)/streptomycin (100 μg/mL) (Biochrom AG) on ice. Subsequently, cortices were mechanically dissociated with scalpels. […]
# The functionality of Pgp in RBE4-WT, RBE4-MDR1-EGFP, hCMEC/D3-WT, hCMEC/D3-MDR1-EGFP cells, and primary rBCECs was analyzed by measuring the uptake of the fluorescent Pgp substrate Rho123 (Sigma-Aldrich). […] Intracellular Rho123 concentration was determined by cell lysis in standard lysis buffer (25 mM Tris, 50 mM NaCl, 0.5% (w/v) sodium deoxycholate, 0.5% (w/v) Triton X-100) and measurement of fluorescence intensity with the FLUOstar OPTIMA (ex.: 485 nm, em.: 520 nm; BMG Labtech). Protein concentrations were determined using a BCA assay kit (Thermo Fisher Scientific). Rho123 uptake was obtained for each condition in triplicates and calculated as absolute fluorescence per mg protein. Additionally, Pgp functionality was expressed as multidrug resistance activity factor (MAF) as described by Huber et al.. […]
# [1] = molecular target: Pgp in LLC-MDR1 monolayers (Homo sapiens, UniProt P08183); settings: Rho123 2 µM
# Sequence of Pgp in LLC-MDR1 monolayers (P08183 whole entry): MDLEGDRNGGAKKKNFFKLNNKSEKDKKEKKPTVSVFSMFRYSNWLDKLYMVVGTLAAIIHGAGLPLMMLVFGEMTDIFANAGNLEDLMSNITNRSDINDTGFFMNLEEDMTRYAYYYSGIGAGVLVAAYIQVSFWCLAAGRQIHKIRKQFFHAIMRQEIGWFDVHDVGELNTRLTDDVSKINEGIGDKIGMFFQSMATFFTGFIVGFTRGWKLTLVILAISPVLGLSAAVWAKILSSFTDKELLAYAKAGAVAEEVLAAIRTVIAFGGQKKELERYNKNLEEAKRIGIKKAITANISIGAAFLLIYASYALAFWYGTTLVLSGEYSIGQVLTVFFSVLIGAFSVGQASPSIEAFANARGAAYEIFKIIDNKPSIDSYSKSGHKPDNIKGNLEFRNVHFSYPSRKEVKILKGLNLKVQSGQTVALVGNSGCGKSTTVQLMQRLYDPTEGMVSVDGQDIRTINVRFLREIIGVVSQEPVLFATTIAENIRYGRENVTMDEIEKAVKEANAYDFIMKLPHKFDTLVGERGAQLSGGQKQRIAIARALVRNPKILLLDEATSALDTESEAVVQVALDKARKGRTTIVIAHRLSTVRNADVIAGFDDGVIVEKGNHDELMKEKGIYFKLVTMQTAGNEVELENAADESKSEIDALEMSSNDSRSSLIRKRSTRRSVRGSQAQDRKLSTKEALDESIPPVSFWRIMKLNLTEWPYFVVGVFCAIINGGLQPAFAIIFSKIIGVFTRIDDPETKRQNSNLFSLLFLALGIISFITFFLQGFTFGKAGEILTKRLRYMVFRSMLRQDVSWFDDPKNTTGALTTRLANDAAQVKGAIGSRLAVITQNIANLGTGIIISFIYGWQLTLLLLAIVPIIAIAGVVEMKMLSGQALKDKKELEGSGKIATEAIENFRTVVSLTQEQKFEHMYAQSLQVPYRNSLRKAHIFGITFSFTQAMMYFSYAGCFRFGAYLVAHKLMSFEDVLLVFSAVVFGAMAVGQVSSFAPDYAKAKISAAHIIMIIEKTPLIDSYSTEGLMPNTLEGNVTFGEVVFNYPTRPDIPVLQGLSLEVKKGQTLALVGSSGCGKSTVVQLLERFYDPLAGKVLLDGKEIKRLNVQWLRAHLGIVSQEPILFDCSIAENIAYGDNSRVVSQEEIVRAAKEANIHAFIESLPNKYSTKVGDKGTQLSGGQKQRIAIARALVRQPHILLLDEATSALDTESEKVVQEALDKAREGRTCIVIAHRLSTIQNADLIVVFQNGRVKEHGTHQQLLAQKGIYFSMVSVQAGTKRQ
# [2] = Rho123 5 µM, 2 h, without tariquidar
# [3] = with vs without tariquidar 0.5 µM
compound,measurement,setting,value
"COC(=O)c1ccccc1-c1c2ccc(=N)cc-2oc2cc(N)ccc12 [Rho123, rhodamine 123]",intracellular Rho123 accumulation,Pgp in RBE4-WT cells; [2],"86,513 ± 2021 absolute fluorescence per mg p"
same,multidrug resistance activity factor (MAF) from intracellular Rho123 accumulation,Pgp in RBE4-WT cells; [3],37.5% ± 4.2
same,intracellular Rho123 accumulation,Pgp in primary rBCECs; [2],"56,482 ± 2456 absolute fluorescence per mg p"
same,multidrug resistance activity factor (MAF) from intracellular Rho123 accumulation,Pgp in primary rBCECs; [3],61.2% ± 2.7
same,vectorial transport in CETA,[1],significant vectorial transport was observed
